Measured values as given in patent US20220386606A1, “SPECIFICALLY SUBSTITUTED 3-PHENYL-5-SPIROCYCLOPENTYL-3-PYRROLIN-2-ONES AND THEIR USE AS HERBICIDES” (Bayer Aktiengesellschaft, priority 2019, published 2022).

Experiments:
ECHCG [1] = assay: Post-emergence herbicidal action against ECHCG; format: in vivo, Echinochloa crus-galli; conditions: 80 g/ha, visual assessment about 3 weeks after treatment vs untreated controls
How it was run: (§1)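 Visual scoring about 3 weeks after treatment gave % herbicidal action relative to untreated plants (0% = control-like, 100% = plants dead). Compounds, as WP or EC with 0.2% wetting agent, were sprayed onto green parts at 600–800 l/ha. Plants had reached the one-leaf stage, 2–3 weeks after sowing in sandy loam under greenhouse conditions.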

SETVI [2] = assay: Post-emergence herbicidal action against SETVI; format: in vivo, Setaria viridis; conditions: 80 g/ha, visual assessment about 3 weeks after treatment vs untreated controls
How it was run: as §1

DIGSA [3] = assay: Post-emergence herbicidal action against DIGSA; format: in vivo, Digitaria sanguinalis; conditions: 80 g/ha, visual assessment about 3 weeks after treatment vs untreated controls
How it was run: as §1

ALOMY [4] = assay: Post-emergence herbicidal action against ALOMY; format: in vivo, Alopecurus myosuroides; conditions: 80 g/ha, visual assessment after about 3 weeks
How it was run: as §1

ABUTH [5] = assay: Post-emergence herbicidal action against ABUTH; format: in vivo, Abutylon threophrasti; conditions: 80 g/ha, visual assessment about 3 weeks after treatment vs untreated controls
How it was run: as §1

LOLRI [6] = assay: Post-emergence herbicidal action against LOLRI; format: in vivo, Lolium rigidum; conditions: 80 g/ha, visual assessment about 3 weeks after treatment vs untreated controls
How it was run: as §1

AVEFA [7] = assay: Post-emergence herbicidal action against AVEFA; format: in vivo, Avena fatua; conditions: 80 g/ha, visual assessment after about 3 weeks
How it was run: as §1

HORMU = assay: Post-emergence herbicidal action against HORMU; format: in vivo, Hordeum murinum; conditions: 80 g/ha, visual assessment about 3 weeks after treatment vs untreated controls
Experimental: Seeds of monocotyledonous and dicotyledonous weed and crop plants are laid out in sandy loam soil in wood-fiber pots, covered with soil and cultivated in a greenhouse under good growth conditions. 2 to 3 weeks after sowing, the test plants are treated at the one-leaf stage. The compounds of the invention, formulated in the form of wettable powders (WP) or as emulsion concentrates (EC), are then sprayed onto the green parts of the plants as aqueous suspension or emulsion at a water application rate equating to 600 to 800 l/ha with addition of 0.2% wetting agent. After the test plants have been left to stand in the greenhouse under optimal growth conditions for about 3 weeks, the action of the preparations is assessed visually in comparison to untreated controls (herbicidal action in percent (%): 100% activity=the plants have died, 0% activity=like control plants).

MATIN = assay: Pre-emergence herbicidal action against MATIN; format: in vivo; conditions: 320 g/ha
How it was run: (§2)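 Scoring is visual, 3 weeks post-application, on a 0 to 100% scale relative to untreated controls (100% = plants died). Treatment is pre-emergence: aqueous suspensions or emulsions applied to the covering soil at 600 to 800 L/ha with 0.2% wetting agent.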

AMARE = assay: Pre-emergence herbicidal action against AMARE; format: in vivo, Amaranthus retroflexus; conditions: 320 g/ha
How it was run: as §2

VIOTR = assay: Pre-emergence herbicidal action against VIOTR; format: in vivo, Viola tricolor; conditions: 320 g/ha
How it was run: as §2

ABUTH [8] = assay: Pre-emergence herbicidal action against ABUTH; format: in vivo, Abutylon threophrasti; conditions: 320 g/ha
Text: Seeds of monocotyledonous and dicotyledonous weed plants and crop plants are laid out in sandy loam soil in wood-fiber pots and covered with soil. The compounds of the invention, formulated in the form of wettable powders (WP) or as emulsion concentrates (EC), are then applied to the surface of the covering soil as aqueous suspension or emulsion at a water application rate equating to 600 to 800 L/ha with addition of 0.2% wetting agent.
After the treatment, the pots are placed in a greenhouse and kept under good growth conditions for the trial plants. The damage to the test plants is scored visually after a test period of 3 weeks by comparison with untreated controls (herbicidal activity in percent (%): 100% activity=the plants have died, 0% activity=like control plants).

VERPE = assay: Pre-emergence herbicidal action against VERPE; format: in vivo, Veronica persica; conditions: 320 g/ha
How it was run: as §2

ALOMY [9] = assay: Pre-emergence herbicidal action against ALOMY; format: in vivo, Alopecurus myosuroides; conditions: 320 g/ha, scored visually after 3 weeks vs untreated controls
How it was run: as §2

SETVI [10] = assay: Pre-emergence herbicidal action against SETVI; format: in vivo, Setaria viridis; conditions: 320 g/ha, scored visually after 3 weeks vs untreated controls
How it was run: as §2

ECHCG [11] = assay: Pre-emergence herbicidal action against ECHCG; format: in vivo, Echinochloa crus-galli; conditions: 320 g/ha, scored visually after 3 weeks vs untreated controls
How it was run: as §2

DIGSA [12] = assay: Pre-emergence herbicidal action against DIGSA; format: in vivo, Digitaria sanguinalis; conditions: 320 g/ha, scored visually after 3 weeks vs untreated controls
How it was run: as §2

LOLRI [13] = assay: Pre-emergence herbicidal action against LOLRI (Table 8, titled post-emergence at 320 g/ha); format: in vivo, Lolium rigidum; conditions: table stands in the pre-emergence section
How it was run: as §2

AVEFA [14] = assay: Pre-emergence herbicidal action against AVEFA; format: in vivo, Avena fatua; conditions: 320 g/ha, scored visually after 3 weeks vs untreated controls
How it was run: as §2

SMILES | Post-emergence action against ECHCG in % (ECHCG [1]) [%] | Post-emergence action against SETVI in % (SETVI [2]) [%] | Post-emergence action against DIGSA in % (DIGSA [3]) [%] | Post-emergence action against ALOMY in % (ALOMY [4]) [%] | Post-emergence action against ABUTH in % (ABUTH [5]) [%] | Post-emergence action against LOLRI in % (LOLRI [6]) [%] | Post-emergence action against AVEFA in % (AVEFA [7]) [%] | Post-emergence action against HORMU in % (HORMU) [%] | Pre-emergence action against MATIN in % (MATIN) [%] | Pre-emergence action against AMARE in % (AMARE) [%] | Pre-emergence action against VIOTR in % (VIOTR) [%] | Pre-emergence action against ABUTH in % (ABUTH [8]) [%] | Pre-emergence action against VERPE in % (VERPE) [%] | Pre-emergence action against ALOMY in % (ALOMY [9]) [%] | Pre-emergence action against SETVI in % (SETVI [10]) [%] | Pre-emergence action against ECHCG in % (ECHCG [11]) [%] | Pre-emergence action against DIGSA in % (DIGSA [12]) [%] | Pre-emergence herbicidal action against LOLRI in % (LOLRI [13]) [%] | Pre-emergence action against AVEFA in % (AVEFA [14]) [%]
CC#Cc1cc(C)c(C2=C(O)C3(CCC(COC)C3)NC2=O)c(Cl)c1 (stereo not shown) [Example I-12] | 100 | 100 | 100 | 100 | 90 | 100 | 100 | 100 |  |  |  |  |  |  |  |  |  |  | 
CC#Cc1cc(Cl)c(C2=C(OC(=O)OCC)C3(CCC(COC)C3)NC2=O)c(OC)c1 (stereo not shown) [Example P-97] | 100 | 100 | 100 | 100 |  | 100 | 100 |  | 100 | 100 | 90 | 100 | 100 | 100 | 100 | 100 | 100 | 100 | 100
CC#Cc1cc(Cl)c(C2=C(OC(=O)OCC)C3(CCC(COCC)C3)NC2=O)c(OC)c1 (stereo not shown) [Example P-26] | 100 | 100 | 100 | 100 | 80 | 100 | 100 | 100 |  |  |  |  |  |  |  |  |  |  | 
CC#Cc1cc(Cl)c(C2=C(OC(=O)C(C)C)C3(CCC(COC)C3)NC2=O)c(CC)c1 (stereo not shown) [Example P-14] | 100 | 100 | 100 | 100 | 90 | 100 | 100 | 100 |  |  |  |  |  |  |  |  |  |  | 
CC#Cc1cc(C)c(C2=C(O)C3(CCC(COC)C3)NC2=O)c(Cl)c1 (stereo not shown) [Example I-06] | 100 | 100 | 100 | 100 | 80 | 100 | 100 | 100 |  |  |  |  |  |  |  |  |  |  | 
